Reference: US6835536B2, “Antimicrobial cationic peptides and formulations thereof” (Micrologix Biotech Inc., priority 2001, dated 2004)

Key:
Assay in all cases: Agarose dilution MIC assay
Assay type in all cases: cell-based
K. pneumoniae = tested on: K. pneumoniae
Description: (§1) The agarose dilution assay measures antimicrobial activity of peptides and peptide analogues. The activity is expressed as the minimum inhibitory concentration (MIC) in μg/ml of the peptide.
(§2) In order to mimic in vivo conditions, calcium and magnesium supplemented Mueller Hinton broth is used in combination with a low EEO agarose as the bacterial growth medium. Agarose, rather than agar, is used as the charged groups in agar prevent peptide diffusion through the medium. The medium is autoclaved, then cooled to 50-55° C. in a water bath before aseptic addition of a peptide solution. The same volume of different concentrations of peptide solution is added to the cooled, molten agarose that is then poured into a petri plate to a depth of 3-4 mm and allowed to solidify.
(§3) The bacterial inoculum is adjusted to a 0.5 McFarland turbidity standard (PML Microbiological) and then diluted 1:10 before application on to the agarose plate. The final inoculum applied to the agarose is approximately 10^4 CFU in a 5-8 mm diameter spot. The agarose plates are incubated at 35-37° C. for 16 to 20 hours.

S. aureus = conditions: for Minimum Inhibitory Concentration: S. aureus strain SAU014, agarose dilution
Description: as §1, §2, §3

E. faecalis = E. faecalis strain EFS001
Description: as §1, §2, §3

S. pneumoniae = S. pneumoniae strain SPN002
Description: as §1, §2, §3

C. jeikeium = C. jeikeium strain CJK005
Description: as §1, §2, §3

S. pyogenes = S. pyogenes strain SPY001
Description: as §1, §2, §3

S. mitis = S. mitis strain SMT014
Description: as §1, §2, §3

S. marcescens = S. marcescens strain SMS003
Description: as §1, §2, §3

C. albicans = conditions: for Minimum Inhibitory Concentration: C. albicans strain CAL002, agarose dilution
Description: as §1, §2, §3

E. coli = E. coli strain ECO005
Description: as §1, §2, §3

C. neoformans = C. neoformans strain CNE001
Description: as §1, §2, §3

A. calcoaceticus = A. calcoaceticus strain ACA002
Description: as §1, §2, §3

E. cloacae = E. cloacae strain ECL007
Description: as §1, §2, §3

S. maltophilia = S. maltophilia strain SMA002
Description: as §1, §2, §3

P. aeruginosa = conditions: for Minimum Inhibitory Concentration: P. aeruginosa strain PAE004, agarose dilution
Description: as §1, §2, §3

S. epidermidis = conditions: for Minimum Inhibitory Concentration: S. epidermidis strain SEP010, agarose dilution
Description: as §1, §2, §3

| Substance | Minimum Inhibitory Concentration (K. pneumoniae; K. pnenmoniae strain KPN001) | Minimum Inhibitory Concentration (S. aureus) | Minimum Inhibitory Concentration (E. faecalis) | Minimum Inhibitory Concentration (S. pneumoniae) | Minimum Inhibitory Concentration (C. jeikeium) | Minimum Inhibitory Concentration (S. pyogenes) | Minimum Inhibitory Concentration (S. mitis) | Minimum Inhibitory Concentration (S. marcescens) | Minimum Inhibitory Concentration (C. albicans) | Minimum Inhibitory Concentration (E. coli) | Minimum Inhibitory Concentration (C. neoformans) | Minimum Inhibitory Concentration (A. calcoaceticus) | Minimum Inhibitory Concentration (E. cloacae) | Minimum Inhibitory Concentration (S. maltophilia) | Minimum Inhibitory Concentration (P. aeruginosa) | Minimum Inhibitory Concentration (S. epidermidis) | Minimum Inhibitory Concentration (K. pneumoniae; K. pneumoniae strain KPN001) | further results |
| --- | --- | --- | --- | --- | --- | --- | --- | --- | --- | --- | --- | --- | --- | --- | --- | --- | --- | --- |
| I L K W V W W V W R R K [Peptide 11B36CN] | 8 µg/mL | 2 µg/mL | 16 µg/mL | 4 µg/mL | 1 µg/mL | 2 µg/mL | 2 µg/mL | >128 µg/mL | 8 µg/mL | 8 µg/mL | 16 µg/mL | 2 µg/mL | 64 µg/mL | 8 µg/mL | 32 µg/mL | 2 µg/mL | – | – |
| I L R R W V W W V W R R K [Peptide 11F5CN] | 64 µg/mL | 8 µg/mL | 16 µg/mL | 4 µg/mL | 0.5 µg/mL | 2 µg/mL | 2 µg/mL | >128 µg/mL | 32 µg/mL | 16 µg/mL | 8 µg/mL | 4 µg/mL | 128 µg/mL | 16 µg/mL | 64 µg/mL | 2 µg/mL | – | – |
| I L R W P W W P W R R K [Peptide 11B7CN] | – | – | – | – | – | – | – | – | – | – | – | – | – | – | – | – | – | MIC (S. aureus; S. aureus (SA016), Table 6): Organism Tested: S. aureus (SA016) MIC = 2 ug/ml; MIC (C. albicans; C. albicans (CA002), Table 6): Organism Tested: C. albicans (CA002) MIC = 64 ug/ml; MIC (P. aeruginosa; P. aeruginosa (PA004), Table 6): Organism Tested: P. aeruginosa (PA004) MIC = 128 ug/ml; MIC (S. epidermidis; S. epidermidis (SE010), Table 6): Organism Tested: S. epidermidis (SE010) MIC = 4 ug/ml |
| R L F V W W V F R R [Peptide 11F64CN] | 2 µg/mL | 1 µg/mL | 2 µg/mL | 2 µg/mL | 0.5 µg/mL | 1 µg/mL | 1 µg/mL | >128 µg/mL | 16 µg/mL | 2 µg/mL | 8 µg/mL | 2 µg/mL | 16 µg/mL | 1 µg/mL | 16 µg/mL | 1 µg/mL | – | – |
| R L G G G W V W W V W R R [Peptide 11F50CN] | 16 µg/mL | 2 µg/mL | 16 µg/mL | 2 µg/mL | 0.5 µg/mL | 1 µg/mL | 1 µg/mL | >128 µg/mL | 32 µg/mL | 4 µg/mL | 16 µg/mL | 2 µg/mL | >128 µg/mL | 8 µg/mL | >128 µg/mL | 1 µg/mL | – | – |
| R L V V W W V V R R [Peptide 11F63CN] | 4 µg/mL | 2 µg/mL | 4 µg/mL | 4 µg/mL | 1 µg/mL | 1 µg/mL | 2 µg/mL | >128 µg/mL | 16 µg/mL | 2 µg/mL | 8 µg/mL | 2 µg/mL | 16 µg/mL | 0.5 µg/mL | 8 µg/mL | 1 µg/mL | – | – |
| W (Dab) W W (Dab) P (Dab) W (Dab) W P (Dab) W [Peptide 11J68CN] | – | – | – | 1 µg/mL | <0.25 µg/mL | 5e-07 µg/mL | – | – | – | – | 1 µg/mL | 5e-07 µg/mL | 1.6e-05 µg/mL | 4 µg/mL | 4e-06 µg/mL | – | 4 µg/mL | – |
| W (Orn) W W (Orn) P (Orn) W (Orn) W P (Orn) W [Peptide 11J67CN] | – | 2e-06 µg/mL | 6.4e-05 µg/mL | 2 µg/mL | <0.25 µg/mL | – | – | – | – | – | 2 µg/mL | 1e-06 µg/mL | – | 1 µg/mL | – | – | 8 µg/mL | – |
| W (Orn) W W (Orn) V A W (Orn) W V (Orn) W [Peptide 11J58CN] | – | – | 3.2e-05 µg/mL | 2 µg/mL | 0.5 µg/mL | – | 1e-06 µg/mL | – | – | – | 2 µg/mL | 1e-06 µg/mL | 1.6e-05 µg/mL | 2 µg/mL | 1.6e-05 µg/mL | – | 2 µg/mL | – |
| W P W W P W R R K [Peptide 11G27CN] | – | – | – | 32 µg/mL | 0.5 µg/mL | – | – | – | – | 6.4e-05 µg/mL | 16 µg/mL | 1.6e-05 µg/mL | – | 64 µg/mL | >0.000128 µg/mL | 8e-06 µg/mL | >128 µg/mL | – |
| W R W W K P K W R W P K W [Peptide 11J02ACN] | – | 8e-06 µg/mL | 6.4e-05 µg/mL | 16 µg/mL | 0.5 µg/mL | – | – | – | – | 1.6e-05 µg/mL | 16 µg/mL | – | >3.2e-05 µg/mL | 8 µg/mL | – | – | 32 µg/mL | – |
| W R W W K V W R W V K W [Peptide 11J36CN] | – | – | – | 2 µg/mL | 0.5 µg/mL | – | 1e-06 µg/mL | – | – | – | 4 µg/mL | – | – | 2 µg/mL | – | – | 4 µg/mL | – |
| W V R L W W R R V W [Peptide 11F93CN] | – | 2e-06 µg/mL | – | 4 µg/mL | 0.5 µg/mL | – | – | – | – | – | 8 µg/mL | – | – | 8 µg/mL | – | – | 64 µg/mL | – |
